# Read-outs that look alike come from different tables or passages of the source.
# Legend:
# Adenovirus = assay: Plaque reduction neutralization test (NR), positive control, subtype not given; type: cell-based; conditions: unidentified adenovirus
# Method: (§1) The Plaque reduction neutralization test (NR) is used to quantify the ability of a dendrimer to neutralize/inactivate virus. The dendrimer solution to be tested is diluted and mixed with a viral suspension. This is incubated to allow the dendrimer to react with the virus. This is poured over a confluent monolayer of host cells. The surface of the cell layer is covered in a layer of agar or carboxymethyl cellulose to prevent the virus from spreading. The concentration of plaque forming units can be estimated by the number of plaques (regions of infected cells) formed after a few days. Depending on the virus, the plaque forming units are measured by microscopic observation, fluorescent labelled antibodies or specific dyes that react with infected cells. The concentration of dendrimer to reduce the number of plaques by 50% compared to the dendrimer free virus gives the EC50 value.
# Ribivirin was included as a positive control.
# Ad5 McEwen = assay: In vivo treatment of adenoviral eye infection, ocular cultures titred by plaque assay; set-up: species or system NZW female rabbits; conditions: 0.5% cidofovir in saline, 37 μL per eye twice a day, n = 8-10
# Method: Following general anesthesia and corneal scarification, NZW female rabbits were inoculated in each eye with 50 μl of 3.0×10^7 PFU/mL (1.5×10^6 PFU/eye) of Ad5 McEwen. At about 3 hours after inoculation, a swab was taken of the tear film and corneal and conjunctival surfaces into tubes containing 1 mL of outgrowth media, and cultured for adenovirus.
# The rabbits were then divided into 3 groups: 3% SPL7013 (n=5), Vehicle (n=5) and 0.5% cidofovir in saline as positive control (n=4). Commencing on day 1, animals were treated in each eye with 37 μL of drug 8 times a day, or 37 μL of control twice a day. Swabs of the tear film and corneal and conjunctival surfaces were taken one hour after treatment.
# Ad5 titers were determined on A549 lung carcinoma cell monolayers using a standard plaque assay. The ocular cultures were diluted and inoculated onto A549 monolayers, and the virus adsorbed for 3 hours. Following adsorption, 1 mL of media plus 0.5% methylcellulose was added to each well, and the plates were incubated at 37° C. in a 5% CO2-water vapor atmosphere for 7 days, then stained with 0.5% gentian violet, and plaques were counted.
# [1] = tested on: Adenovirus 37 (ATCC #VR-929); assay: Adenoviral replication titer reduction, drug added after infection (control protocol); type: cell-based; conditions: for Percent reduction of adenoviral replication: Adeno-37, WI-38 cells
# From the text: (§2) Adenovirus subtype 5 (ATCC #VR-5) was used with HeLa cells (ATCC #CCL-2), Adenovirus subtype 8 (ATCC #VR-1640) was used with A549 cells (ATCC #CCL-185), Adenovirus subtype 19 (ATCC #VR-254) was used with Chang C cells (ATCC #CCL-20.2) and Adenovirus 37 (ATCC #VR-929) was used with WI-38 cells (ATCC #CCL-75). Both epithelial and fibroblast cell types were used. The recovered virus was titrated in the susceptible cell lines by performing dilutions at 1/10 to 1/100,000 and addition to cells in plates. When cytopathic effect (CPE) was apparent in the virus control, titration plates were classified as positive or negative for cytopathic effect and based on the dilution of the virus applied to the different plates, the 50% tissue-culture infective dose (TCID50) was calculated using the Spearman-Kärber method (Hubert, J J (1984) Spearman-Karber Method in Bioaasay. Hunt, Dubuque, Iowa, pp 65, 66). The TCID50 establishes the dilution at which 50% of the plates show a cytopathic effect (infection). Comparing the TCID50 for sample without SPL7013 with the TCID50 values for samples with different concentrations of SPL7013 provides a measure of the percent reduction of infection achieved by each concentration of SPL7013. This percent reduction represents the activity of SPL7013 against penetration of cells with adenoviruses. A control substance (cidofovir) was tested alongside SPL7013 at 20 μg/mL, 2 μg/mL, 0.2 μg/mL and 0.02 μg/mL (Gordon Y J, Antiviral Research, 1991, 16(1), 11-16). Because cidofovir acts later in the viral replication cycle, target cells were first infected with 0.1 MOI virus and incubated 60 minutes at 37° C.±2° C. Virus was removed, cidofovir was added at the respective concentrations and cells were incubated until CPE reached its maximum. Cells were then lysed and virus was titrated as described above.
# [2] = tested on: Adenovirus subtype 5 (ATCC #VR-5); assay: as above; type: cell-based; conditions: for Percent reduction of adenoviral replication: Adeno-5, HeLa cells
# From the text: as §2
# [3] = tested on: Adenovirus subtype 8 (ATCC #VR-1640); assay: as above; type: cell-based; conditions: for Percent reduction of adenoviral replication: Adeno-8, A549 cells
# From the text: as §2
# [4] = tested on: Adenovirus subtype 19 (ATCC #VR-254); assay: as above; type: cell-based; conditions: for Percent reduction of adenoviral replication: Adeno-19, Chang C cells
# From the text: as §2
# Adeno-5 = assay: Plaque reduction neutralization test (NR); type: cell-based, Adenovirus; conditions: Adeno-5/NR
# Method: as §1
# Adeno-1 [5] = assay: Cytopathic assay (CPE); type: cell-based, Adenovirus; conditions: Adeno-1/CPE
# Method: For the Cytopathic assay (CPE) Plates of cells were incubated with the respective adenovirus subtype and drug at different drug concentrations. Cells were incubated until a Cytopathic effect was clearly observed in plates where cells and virus were plated without drug. In plates where drug was added, the cytopathic effect was quantified using a light microscope and expressed as 0% (no effect) up to 100% (effect as strong as in the no drug control plates). CPE readings were plotted against the drug concentration and the EC50 value was determined as the drug concentration where 50% CPE was observed.
# [6] = tested on: Gardnerella vaginalis ATCC 14018 (MMX 4153); assay: Serial passage resistance development, MIC; type: cell-based; conditions: for MIC: Gardnerella vaginalis
# [7] = tested on: Lactobacillus acidophilus MMX 5716; assay: Serial passage resistance development, MIC; type: cell-based; conditions: for MIC: Lactobacillus acidophilus
# [8] = tested on: Mobiluncus curtisii ATCC 35241 (MMX 4145); assay: Serial passage resistance development, MIC; type: cell-based; conditions: for MIC: Mobiluncus curtisii
# [9] = tested on: Prevotella bivia MMX 3447; assay: Serial passage resistance development, MIC; type: cell-based; conditions: for MIC: Prevotella bivia
# Adeno-1 [10] = assay: Plaque reduction neutralization test (NR); type: cell-based, Adenovirus; conditions: Adeno-1/NR
# Method: as §1
# [11] = ATCC14018, read-out: MIC after serial passage
# [12] = ATCC14018, read-out: MIC at baseline
compound,measurement,setting,value
NC(=O)c1ncn([C@@H]2O[C@H](CO)[C@@H](O)[C@H]2O)n1 [Ribavirin],EC50,Adenovirus,10 µg/mL
Nc1ccn(C[C@@H](CO)OCP(=O)(O)O)c(=O)n1 [cidofovir],% Ad5 -Positive cultures,Ad5 McEwen; Day 0 (before treatment),100%
same,% Ad5 -Positive cultures,Ad5 McEwen; Day 1,100%
same,% Ad5 -Positive cultures,Ad5 McEwen; Day 3,100%
same,% Ad5 -Positive cultures,Ad5 McEwen; Day 4,75%
same,Percent reduction of adenoviral replication,[1]; cidofovir 0.02 μg/mL,0.00%
same,Percent reduction of adenoviral replication,[1]; cidofovir 0.2 μg/mL,57.83%
same,Percent reduction of adenoviral replication,[1]; cidofovir 2 μg/mL,99.99%
same,Percent reduction of adenoviral replication,[1]; cidofovir 20 μg/mL,>99.99%
same,IC50,"[1]; unidentified adenovirus, Adeno-37, estimated, molar basis (279 g/mol)",112 nM
same,Percent reduction of adenoviral replication,[2]; cidofovir 0.02 μg/mL,68.38%
same,Percent reduction of adenoviral replication,[2]; cidofovir 0.2 μg/mL,82.22%
same,Percent reduction of adenoviral replication,[2]; cidofovir 2 μg/mL,86.66%
same,Percent reduction of adenoviral replication,[2]; cidofovir 20 μg/mL,90.00%
same,IC50,"[2]; unidentified adenovirus, Adeno-5, estimated, molar basis (279 g/mol)",559 nM
same,Percent reduction of adenoviral replication,[3]; cidofovir 0.02 μg/mL,90.00%
same,Percent reduction of adenoviral replication,[3]; cidofovir 0.2 μg/mL,98.22%
same,Percent reduction of adenoviral replication,[3]; cidofovir 2 μg/mL,98.67%
same,Percent reduction of adenoviral replication,[3]; cidofovir 20 μg/mL,99.00%
same,IC50,"[3]; unidentified adenovirus, Adeno-8, estimated, molar basis (279 g/mol)",112 nM
same,Percent reduction of adenoviral replication,[4]; cidofovir 0.02 μg/mL,0.00%
same,Percent reduction of adenoviral replication,[4]; cidofovir 0.2 μg/mL,0.00%
same,Percent reduction of adenoviral replication,[4]; cidofovir 2 μg/mL,43.77%
same,Percent reduction of adenoviral replication,[4]; cidofovir 20 μg/mL,94.38%
same,IC50,"[4]; unidentified adenovirus, Adeno-19, estimated, molar basis (279 g/mol)",52400 nM
"[NH3][PAMAM]2[CSNH-3,5-Ph(SO3Na)2]24",EC50,Adeno-5,150 µg/mL
"[NH3][PAMAM]4NHCSNH-2-naphth-5,7-(SO3Na)2]24",EC50,Adeno-1 [5],20 µg/mL
CO[C@H]1/C=C/O[C@@]2(C)Oc3c(C)c(O)c4c(O)c(c5c(nc6cc(C)ccn65)c4c3C2=O)NC(=O)/C(C)=C\C=C\[C@H](C)[C@H](O)[C@@H](C)[C@@H](O)[C@@H](C)[C@H](OC(C)=O)[C@@H]1C [Rifaximin],MIC,[6]; [11],128 µg/mL
same,MIC,[6]; [12],0.06 µg/mL
same,Fold increase of MIC,[6]; by passage 9,> 2000 fold
same,MIC,"[7]; MMX5716, read-out: MIC after serial passage",64 µg/mL
same,MIC,"[7]; MMX5716, read-out: MIC at baseline",1 µg/mL
same,Fold increase of MIC,[7]; by passage 9,64 fold
same,Change of MIC during passage (in words),[8]; 10 serial passages,No apparent increase
same,MIC,"[9]; MMX3447, read-out: MIC after serial passage",0.12 µg/mL
same,MIC,"[9]; MMX3447, read-out: MIC at baseline",0.03 µg/mL
same,Fold increase of MIC,[9]; passage number not given,4 fold
[BHALys][Lys]32deoxycholicacid[NHCSNH-4-ph-SO3Na]63,EC50,Adeno-1 [5],20 µg/mL
same,EC50,Adeno-1 [10],10 µg/mL
Cc1ncc([N+](=O)[O-])n1CCO [Metronidazole],MIC,[6]; [11],> 128 µg/mL
same,MIC,[6]; [12],4 µg/mL
same,Fold increase of MIC,[6]; by passage 7,> 64 fold
same,MIC,"[8]; ATCC35241, read-out: MIC after serial passage",> 128 µg/mL
same,MIC,"[8]; ATCC35241, read-out: MIC at baseline",8 µg/mL
same,Fold increase of MIC,[8]; by passage 5,> 16 fold

# From patent US10149885B2, “Method of treatment or prophylaxis of infections of the eye” (STARPHARMA PTY LIMITED, priority 2012, dated 2018)
